US20060062841A1, “Liposomal vectors” (priority 2004, published 2006)

Tests used:
[1] = system: TNF-α; assay: Cytokine assay in the blood: TNF-α; format: in vivo, mouse
Method: FIG. 3A-C. Comparison the levels of TNF-α in blood (a), organs (b) and the blood levels of IL-12 and IFN-γ (c) after injection of the lipoplexes and safeplexes. The charge ratio of DOTA to DNA (+/−) (a) was varied from 0 to 12 and (b) and (c) was fixed at 6 to 1. The levels of cytokines were detected 2 h (a,b) or 6 h (c) after injection of the lipoplexes and safeplexes containing 25 μg pDNA. P<0.001 (three mice in each group).
FIG. 4A-B. Effect of (A) DEX dose and (B) time course on suppressing TNF-α. Mice were (three in each group) injected with the lipoplexes or safeplexes with (A) a varied ratio of DEX to DOTAP and (B) with a ratio of DEX to DOTAP of 1/10 (w/w). (a, b) The charge ratio of DOTAP to DNA was fixed at 6 to 1. P>0.5, P<0.001
FIG. 5. Inhibition of TNF-α production by other suppressors. The levels of TNF-α in the blood were analyzed 2 h after the injection of lipoplexes and safeplexes with a charge ratio of DNA to DOTAP of 1/6 (mol/mol). P<0.001 (n=3).
At indicated time points (2 h for TNF-α, 6 h for IL-12 and IFN-γ) following the injection of a tested sample containing 25 μg of pDNA, the blood and organs (the liver, lung and spleen) were collected. The blood was allowed to clot on ice for at least 4 h and then centrifuged at 3000 g for 20 min at 4° C., and serum was collected for the cytokine assay. For the organ assay, […] of each organ was added with 0.5 ml PBS buffer and homogenized for 20 s at the highest speed. The homogenates were frozen (in liquid nitrogen) and thawed (in 37° C. water bath) three times and then centrifuged at 14,000 g for 5 min. The supernatants were collected for the cytokine assay. The concentrations of cytokines (TNF-α, IL-12 and IFN-γ) were determined with mouse cytokine immunoassay kits (R&D System, Minneapolis, Minn.). Data were analyzed by the paired Student's t test using Excel. Data were considered statistically significant if P<0.01.

[2] = system: immune cells; conditions: sublethally irradiated mice, intraperitoneal injection; cited from earlier work

Row | Compound | effect on TNF-α production in blood ([1]; mouse, in vivo) | other results
1 | COc1ccc2c(c1)c(CC(=O)O)c(C)n2C(=O)c1ccc(Cl)cc1 [indomethacin] | showed the inhibitory effect | –
2 | Dexamethasone-Water Soluble [free DEX] | – | inhibition of TNF-α ([1]; 32 μg free DEX intravenously, immediately followed by DNA/DOTAP complexes): less than 45%
3 | CN1C(=O)[C@]23CC4=CC=C[C@H](O)[C@H]4N2C(=O)[C@@]1(CO)SS3 [gliotoxin] | – | effect on TNF-α production in blood ([1]; carried by safeplexes, inhibitor/DOTAP 1/6 mol/mol, 2 h after injection): showed the inhibitory effect; recovery of immune cells [2]: significant delay

The next lines start with results.

Row | effect on TNF-α production in blood ([1]; mouse, in vivo) | Compound | other results
4 | showed the inhibitory effect | COc1ccc2cc1Oc1ccc(cc1)C[C@H]1c3cc(c(OC)cc3CCN1C)Oc1c(OC)c(OC)cc3c1[C@H](C2)N(C)CC3 [tetrandrine] | –
5 | showed the inhibitory effect | C[C@]12C=CC(=O)C=C1CC[C@@H]1[C@@H]2C(=O)C[C@@]2(C)[C@H]1CC[C@]2(O)C(=O)CO [prednisone] | –
